Laboratory results: patent publication US20120093946A1, “USE OF CARBON DIOXIDE SUPPLYING MEANS FOR MUSCLE STRENGTHENING AND METHOD OF INCREASING CATTLE MEAT THEREBY” (priority 2007, published 2012)

What was measured:
[1] = tested on: muscle strength of the quadriceps femoris and the hamstrings; assay: Promotion of muscle strengthening by stretching exercise on isometric torque of legs, transdermal carbon dioxide absorption on treated leg; format: in vivo, human
From the text: Eight subjects including two subjects who played sports three times or more a week (hereinafter, referred to as “athlete”) and six subjects who played sports two times or less a week (hereinafter, referred to as “non-athlete”) participated in the experiment. Each subject did warming-up by pedaling a gym bicycle for ten minutes. Next, each subject did a stretching exercise on isometric torque of the quadriceps femoris 300 times or more by using training machine MyoretRZ-450 (Kawasaki Heavy Industries, Ltd.). Thus, an exercise load was applied to the quadriceps femoris. Then, the muscle strength of the quadriceps femoris and the muscle strength of the hamstrings to which an exercise load was not applied were measured by using MyoretRZ-450.
After the training was completed, the carbon dioxide absorption aid 4 described in Example 5 in Patent Document 7 (Japanese Patent Unexamined Publication No. 2004-517345) was applied to one determined leg (hereinafter, referred to as a “treated leg”). The treated leg was covered with an 80 cm-long polypropylene bag type sealing enclosure member equipped with a check valve. Then, the member was filled with carbon dioxide from a carbon dioxide gas cylinder and stood still for ten minutes. The carbon dioxide concentration was set to 80% (800,000 ppm). No treatment was given to the other leg (hereinafter, referred to as a “non-treated leg”). The training was carried out only once, this time.
Each subject allowed the treated leg to absorb carbon dioxide for ten minutes once a day as mentioned above by using the carbon dioxide supplying means for muscle strengthening of the present invention (by using a carbon dioxide external administration device as the carbon dioxide supplying means). Thereafter, the muscle strength of the quadriceps femoris and the muscle strength of the hamstrings were measured by using MyoretRZ-450.
On day 4 and later after the experiment was started, neither absorption of carbon dioxide nor stretching exercise on isometric torque of the quadriceps femoris was carried out. On day 7 after the experiment was started, the muscle strengths of the quadriceps femoris and the hamstrings were measured by using MyoretRZ-450.

[2] = tested on: grip strength; assay: Promotion of kaatsu training effect, grip strength; format: in vivo, human
Procedure: Two subjects participated in the experiment. The experiment was carried out according to Abe T. et al. (2006) Electromyographic responses of arm and chest muscle during bench press exercise with and without KAATSU. Int. J. Kaatsu Training Res. 2:15-18. The grip strengths of both hands of each subject were measured before the experiment was started. Next, the absorption aid 4 of carbon dioxide described in Example 5 in Patent Document 7 (Japanese Patent Unexamined Publication No. 2004-517345) was applied to the entire left arm of each subject, and the left arm was covered with an 80 cm-long polypropylene bag type sealing enclosure member equipped with a check valve. A cuff of blood pressure manometer was worn on the upper arm with the sealing enclosure member applied. Firstly, the upper arm was pressurized with a cuff pressure of 50 mmHg for 30 seconds. Next, the pressure was released once for 10 seconds, and then the upper arm was pressurized while gradually increasing the cuff pressure to 70 mmHg. When the cuff pressure reached 70 mmHg, the pressure was fixed. Then, carbon dioxide was filled in the sealing enclosure member from a carbon dioxide gas cylinder so as to inflate the sealing enclosure member. […]
Three days after the experiment, the grip strength of both hands of each subject was measured.

[3] = tested on: rat lower thigh muscle; assay: Increase in amount of rat muscle with no exercise load applied, three months; format: in vivo, Wister rats
From the text: Nine male Wister rats (5-week old at the time when the experiment was started) were used.
In the CO2 group, the hair was removed from the right and left lower thighs of six rats under anesthesia. Then, the absorption aid 4 of carbon dioxide described in Example 5 in Patent Document 7 (Japanese Patent Unexamined Publication
No. 2004-517345) was applied to only the right lower thigh (hereinafter, referred to as a “treated limb”). Next, the rat lower body was covered with a polyethylene bag type sealing enclosure member provided with a hole through which the left hind limb comes out so that only the right hind limb absorbs carbon dioxide. Then, carbon dioxide was filled in the sealing enclosure member by using a carbon dioxide gas cylinder so as to inflate the sealing enclosure member. In order to always secure a sufficient amount of carbon dioxide in the sealing enclosure member, carbon dioxide was added at any time, so that the sealing enclosure member was filled with carbon dioxide for ten minutes. The carbon dioxide concentration inside the sealing enclosure member was set to 100%. […]
Three months later, the rat body weights were measured and the muscle was collected from the right and left lower thighs. The muscle wet weight of the collected muscle was measured, followed by detecting growth a acceleration indicating proteins of muscle fibers, MyoD and Myogenin (see Atsuko HARA et al., “Expression of myosin heavy chain isoforms, myogenin and MyoD in the course of regeneration of skeletal muscle,” Journal of Health Sciences of Hiroshima University, Vol. 2 (1): 12-18, 2002), and IGF-IR [see Junichi SUZUKI et al., “Effect of endurance training with L-arginine supplementation on expression of IGF-1 receptor in rat skeletal muscles” Research for Winter Sports, (the Proceedings of Research and Education Center for Winter Sports, Hokkaido University of Education), Vol. 8 (1) 1-7, 2005], by Western blotting. The resultant bands were analyzed on the analysis software (NIH-Image) so as to quantify each growth acceleration indicating protein. […]

[4] = tested on: muscle strengths of the quadriceps femoris and the hamstrings; assay: Promotion of muscle strengthening with no exercise load applied, three months; format: in vivo, human; settings: month 3, no exercise load, 80% CO2 ten minutes at least once a week
From the text: Thirteen subjects (all males, aged from 27 to 43) participated in the experiment. In each subjects, the absorption aid 4 of carbon dioxide described in Example 5 in Patent Document 7 (Japanese Patent Unexamined Publication No. 2004-517345) was given to one determined leg (hereinafter, referred to as a “treated leg”). The treated leg was covered with an 80 cm-long polypropylene bag type sealing enclosure member equipped with a check valve. Then, carbon dioxide was filled in the member from a carbon dioxide gas cylinder and stood still for ten minutes. The carbon dioxide concentration was set to 80% (800,000 ppm). The treatment was carried out at least once a week for three months. No treatment was given to the other leg (hereinafter, referred to as a “non-treated leg”). Before and three months after the experiment was started, the muscle strengths of the treated leg and the non-treated leg were measured (the muscle strengths of the quadriceps femoris and the hamstrings were measured by using MyoretRZ-450).

[5] = day 7, non-athletes, pre-ex defined as 100%
[6] = 100% CO2 ten minutes twice a week

O=C=O [carbon dioxide]
blood pressure and heart rate of the subjects during the absorption of carbon dioxide ([1]; after exercise load, 80% CO2, ten minutes, treated leg): did not change | muscle strengthening of the quadriceps femoris in the treated leg ([1]; day 7, all subjects, pre-ex defined as 100%, CO2 absorption stopped from day 4): 20% | muscle strengthening of the hamstrings (no exercise load) in the treated leg ([1]; day 7, all subjects, pre-ex defined as 100%, significant at P=5%): about 15% | muscle strengthening of the hamstrings (no exercise load) in the treated leg, non-athletes [1, 5]: about 20% | muscle strengthening of the quadriceps femoris in the treated leg, non-athletes [1, 5]: about 30% | muscle strengthening of the quadriceps femoris, treated leg compared with non-treated leg ([1]; days 2 to 4 of the experiment, CO2 ten minutes once a day): promoted | recovery of the muscle strength of the quadriceps femoris, treated leg versus non-treated leg ([1]; post-CO2, day of exercise load, 80% CO2, ten minutes): faster | muscle strengthening rate (grip strength) compared with only pressurizing ([2]; day 3 after kaatsu training, treated arm versus non-treated arm): two-times | muscle pain and fatigue accompanying kaatsu training ([2]; left hand with carbon dioxide absorption versus only pressurizing and exercise): reduced | muscle wet weight per body weight, CO2 group as compared with CONTROL group [3, 6]: increase | muscle wet weight, treated leg as compared with non-treated leg in the CO2 group [3, 6]: remarkable increase | amount of growth acceleration indicating protein (MyoD, Myogenin, IGF-IR) extracted from the muscle, CO2 group versus CONTROL group ([3]; Western blotting): increased | muscle strengthening of the quadriceps femoris in the treated leg as compared with the non-treated leg ([4]; P=1%): about 15% | muscle strengthening of the hamstrings in the treated leg as compared with the non-treated leg ([4]; P=5%): about 15%
